What was measured:
EP2 [1] = target: T1, EP2 (Homo sapiens, UniProt P43116); assay: EP2 cAMP; format: cell-based
Source text: (§1) U.S. patent application Ser. No. 11/553,143, filed on Oct. 26, 2006, incorporated by reference herein, describes the methods used to obtain the in vitro data in the table below.

EP4 = EP4 (Homo sapiens, UniProt P35408); assay: EP4 binding (KI)
Source text: as §1

hEP3A = target: T2, hEP3A (Homo sapiens, UniProt P43115); assay: Other Receptors, hEP3A; format: cell-based
T2 sequence (P43115 1-390): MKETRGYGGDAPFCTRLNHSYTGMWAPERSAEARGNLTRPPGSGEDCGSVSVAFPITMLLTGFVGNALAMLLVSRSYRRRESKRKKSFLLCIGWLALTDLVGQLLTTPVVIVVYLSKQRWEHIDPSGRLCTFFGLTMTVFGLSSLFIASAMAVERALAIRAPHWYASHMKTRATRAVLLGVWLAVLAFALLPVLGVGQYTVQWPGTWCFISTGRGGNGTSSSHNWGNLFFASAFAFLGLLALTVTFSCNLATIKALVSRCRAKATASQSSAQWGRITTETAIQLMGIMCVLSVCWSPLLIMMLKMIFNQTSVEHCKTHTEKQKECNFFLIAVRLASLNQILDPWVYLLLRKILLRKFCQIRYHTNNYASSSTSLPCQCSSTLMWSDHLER
Source text: as §1

EP2 [2] = target: T1, EP2; assay: EP2 flipr; format: cell-based
Source text: as §1

hDP = target: T3, hDP (Homo sapiens, UniProt Q13258); assay: Other Receptors, hDP; format: cell-based
T3 sequence (Q13258 1-359): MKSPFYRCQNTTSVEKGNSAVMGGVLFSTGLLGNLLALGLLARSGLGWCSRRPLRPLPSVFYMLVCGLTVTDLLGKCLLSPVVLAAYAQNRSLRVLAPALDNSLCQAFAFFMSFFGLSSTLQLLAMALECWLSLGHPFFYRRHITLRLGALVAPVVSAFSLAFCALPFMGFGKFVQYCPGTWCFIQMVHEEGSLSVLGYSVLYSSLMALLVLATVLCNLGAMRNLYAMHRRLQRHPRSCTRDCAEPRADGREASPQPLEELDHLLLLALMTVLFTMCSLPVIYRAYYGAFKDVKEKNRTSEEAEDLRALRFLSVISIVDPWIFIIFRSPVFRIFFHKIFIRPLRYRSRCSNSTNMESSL
Source text: as §1

EP2 [3] = target: T1, EP2; assay: EP2 binding (Ki)
Source text: as §1

normotensive dogs = assay: Ocular surface hyperemia in normotensive dogs; format: in vivo; details: 0.003%, once daily for 5 days, maximum at 26 h
Protocol: U.S. Pat. No. 7,091,231 describes the methods used to carry out the tests reported below.
Isopropyl 5-(3-(3-(4-(1-hydroxyhexyl)phenyl)-2,5-dioxoimidazolidin-4-yl)propyl)thiophene-2-carboxylate (31) was tested in normotensive dogs at 0.003%, dosing once daily for 5 days. The maximum intraocular pressure (IOP) decrease from baseline was 7.7 mmHg (45%) at 102 h; the maximum ocular surface hyperemia (OSH) score was 2.5 at 26 h.

T1 sequence (P43116 whole entry): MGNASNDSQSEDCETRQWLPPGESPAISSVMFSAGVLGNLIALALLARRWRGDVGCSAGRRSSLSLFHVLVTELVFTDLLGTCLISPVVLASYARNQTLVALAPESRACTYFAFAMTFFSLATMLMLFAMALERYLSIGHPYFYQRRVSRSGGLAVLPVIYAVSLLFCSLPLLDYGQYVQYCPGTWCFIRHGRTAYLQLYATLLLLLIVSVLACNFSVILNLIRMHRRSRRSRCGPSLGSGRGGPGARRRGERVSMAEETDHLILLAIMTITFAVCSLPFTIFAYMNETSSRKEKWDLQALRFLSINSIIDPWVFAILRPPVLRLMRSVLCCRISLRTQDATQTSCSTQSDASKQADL
EP4, sequence (P35408 whole entry): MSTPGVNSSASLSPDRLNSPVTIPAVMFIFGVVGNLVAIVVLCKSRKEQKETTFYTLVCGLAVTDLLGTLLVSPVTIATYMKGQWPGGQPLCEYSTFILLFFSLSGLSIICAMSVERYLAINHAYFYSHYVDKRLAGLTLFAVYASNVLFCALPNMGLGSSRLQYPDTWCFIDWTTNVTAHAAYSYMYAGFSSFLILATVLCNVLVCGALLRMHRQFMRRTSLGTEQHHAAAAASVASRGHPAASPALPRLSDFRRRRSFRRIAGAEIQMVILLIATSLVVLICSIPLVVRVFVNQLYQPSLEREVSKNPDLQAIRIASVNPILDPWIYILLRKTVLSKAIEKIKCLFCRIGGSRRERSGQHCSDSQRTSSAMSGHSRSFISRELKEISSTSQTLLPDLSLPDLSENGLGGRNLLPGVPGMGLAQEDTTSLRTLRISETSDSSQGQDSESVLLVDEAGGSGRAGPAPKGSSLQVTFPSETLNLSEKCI

EC50 (EP2 [1]) [nM] | Ki (EP4) [nM] | EC50 (hEP3A) [nM] | EC50 (EP2 [2]) [nM] | EC50 (hDP) [nM] | Ki (EP2 [3]) [nM] | maximum ocular surface hyperemia (OSH) score (normotensive dogs) | Compound
0.2 | – | – | – | – | – | – | CCCCCC(=O)c1ccc(N2C(=O)NC(=O)C2CCCc2ccc(C(=O)O)s2)cc1 (centres unmarked)
0.1 | > 10000 | 10 | 3.5 | 17400 | 5 | – | CCCCCC(O)c1ccc(N2C(=O)NC(=O)C2CCCc2ccc(C(=O)O)s2)cc1 (centres unmarked)
– | – | – | – | – | – | 2.5 | CCCCCC(O)c1ccc(N2C(=O)NC(=O)C2CCCc2ccc(C(=O)OC(C)C)s2)cc1 (centres unmarked) [Compound 31, Isopropyl 5-(3-(3-(4-(1-hydroxyhexyl)phenyl)-2,5-dioxoimidazolidin-4-yl)propyl)thiophene-2-carboxylate]
